Results reported in patent publication US7199129B2, “Derivatives of morphine-like opioid compounds” (Monash University, priority 2001, dated 2007).
Several values for one entry are separate records, joined by “and”; a condition that tells them apart may be missing. Equal entries are not always repeated. Structures can show the parent of a compound that is named as a salt.

Columns and labels:
ICR mice [1] = test: Straub tail behaviour (indicator of CNS activity) and observed signs in test animals
Description: The Straub test is an indicator of CNS activity.
The tail-flick test is thought to involve central nervous system activity, and therefore provides further confirmation of the Straub tail test.

ICR mice [2] = test: Phenylquinone-induced writhing assay in mice (Example 18); assay type: in vivo; conditions: IP; for Number of Writhings Individual: individual mice
Method: Testing on compounds KRS-6-26 and JFY-058 was also carried out under contract by MDS Services—Taiwan Ltd. The study was designed to evaluate the effects of the compounds as analgesics in the phenylquinone-induced writhing assay described in detail in Example 13(Siegmund et al, 1957).
(§1) In each case, a serial 2-fold dosage variance was used in the test, from 128 mg/kg to 1 mg/kg (8 doses in total). Groups of 3 male or female ICR mice weighing 22±2 g were employed. A serial 2-fold dosage variance was used in the test (8 doses in total). Variant doses (1, 2, 4, 8, 16, 32, 64 and 128 mg/kg) of test substances were administered intraperitoneally (IP). A vehicle of 2% Tween 80 in 0.9% NaCl was used for the intraperitoneal injection. The control group received vehicle alone. […] A reduction in the number of writhes by 50 percent or more (≧50%) relative to the vehicle-treated group indicated possible analgesic activity.

human μ-opiate receptor = target: T1, human μ-opiate receptor (Homo sapiens, UniProt P35372); test: In vitro opiate receptor radioligand binding assay, μ; conditions: test compound 10 μM; read-out: Percentage inhibition of radioligand binding, μ-opiate receptor
T1 construct: purchased MDS Pharma Services 260410
Method: (§2) To characterise the target specificity of the compounds, KRS-5-150 and KRS-6-26 were tested at a concentration of 10 μM for their ability to inhibit the binding of a radioligand to human δ-, κ-, or μ-opiate receptors in vitro using commercially available assays (MDS Pharma Services; assay catalogue numbers 260110, 260210 and 260410 respectively).
(§3) Percentage inhibition of radioligand binding to human opioid receptors in vitro by test compounds (10 μM)

human κ-opiate receptor = target: T2, human κ-opiate receptor (Homo sapiens, UniProt P41145); test: In vitro opiate receptor radioligand binding assay, κ; conditions: test compound 10 μM; read-out: Percentage inhibition of radioligand binding, κ-opiate receptor
T2 construct: purchased MDS Pharma Services 260210
Method: as §2, §3

human δ-opiate receptor = target: T3, human δ-opiate receptor (Homo sapiens, UniProt P41143); test: In vitro opiate receptor radioligand binding assay, δ; conditions: test compound 10 μM; read-out: Percentage inhibition of radioligand binding, δ-opiate receptor
T3 construct: purchased MDS Pharma Services 260110
Method: as §2, §3

ICR mice [3] = test: Phenylquinone-induced writhing model in mice (Example 16); assay type: in vivo; conditions: IP, 3 mg/kg, Table 1
Method: as §1, with “KRS-5-150 was evaluated for possible analgesic activity in the phenylquinone-induced writhing model in mice (Siegmund et al, 1957). A” for “In each case, a”

ICR mice [4] = test: Radiant heat-induced tail-flick response assay in mice; assay type: in vivo; conditions: IP, 10 mg/kg
Method: For the tail-flick assay, groups of four male or female ICR mice weighing 22±2 g were used, and the test compound dissolved in 2% Tween 80/0.9% NaCl was administered intraperitoneally. The compound was administered intraperitoneally at 4, 8, 16 or 32 mg/kg, using 2% Tween 80—0.9% NaCl as the vehicle. Controls received vehicle alone. Morphine-HCl at a dose of 10 mg/kg was used as a positive control. At the pre-treatment point (0 minutes) a focused beam of radiant heat was applied to the middle dorsal surface of the tail to elicit a tail-flick response. […] The time required to elicit a pain response was recorded for each animal at 30 minutes following administration of the test compound. A prolongation of 50% or more ≧50% of the time required to elicit tail-flick response indicated possible analgesic activity.

T1 sequence (P35372 whole entry): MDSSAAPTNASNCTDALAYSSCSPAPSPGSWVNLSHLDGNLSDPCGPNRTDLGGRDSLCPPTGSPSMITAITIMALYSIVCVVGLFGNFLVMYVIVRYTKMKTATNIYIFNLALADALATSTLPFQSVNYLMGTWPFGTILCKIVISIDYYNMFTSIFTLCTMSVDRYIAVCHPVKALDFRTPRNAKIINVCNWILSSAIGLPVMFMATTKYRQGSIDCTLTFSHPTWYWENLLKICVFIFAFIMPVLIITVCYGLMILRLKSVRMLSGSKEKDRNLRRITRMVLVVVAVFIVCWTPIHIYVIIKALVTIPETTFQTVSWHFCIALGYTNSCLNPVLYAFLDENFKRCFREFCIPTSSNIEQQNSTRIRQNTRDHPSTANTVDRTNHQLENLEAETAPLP
T2 sequence (P41145 whole entry): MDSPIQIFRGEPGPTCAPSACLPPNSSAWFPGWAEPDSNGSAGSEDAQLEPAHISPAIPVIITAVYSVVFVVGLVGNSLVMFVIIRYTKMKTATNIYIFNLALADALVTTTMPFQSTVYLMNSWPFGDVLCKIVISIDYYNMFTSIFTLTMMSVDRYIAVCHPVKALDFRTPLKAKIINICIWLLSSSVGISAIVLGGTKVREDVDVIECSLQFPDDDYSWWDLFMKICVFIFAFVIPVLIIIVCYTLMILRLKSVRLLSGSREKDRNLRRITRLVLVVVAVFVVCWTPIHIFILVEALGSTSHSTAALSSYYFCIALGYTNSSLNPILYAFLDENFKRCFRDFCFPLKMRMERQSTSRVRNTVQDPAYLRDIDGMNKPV
T3 sequence (P41143 whole entry): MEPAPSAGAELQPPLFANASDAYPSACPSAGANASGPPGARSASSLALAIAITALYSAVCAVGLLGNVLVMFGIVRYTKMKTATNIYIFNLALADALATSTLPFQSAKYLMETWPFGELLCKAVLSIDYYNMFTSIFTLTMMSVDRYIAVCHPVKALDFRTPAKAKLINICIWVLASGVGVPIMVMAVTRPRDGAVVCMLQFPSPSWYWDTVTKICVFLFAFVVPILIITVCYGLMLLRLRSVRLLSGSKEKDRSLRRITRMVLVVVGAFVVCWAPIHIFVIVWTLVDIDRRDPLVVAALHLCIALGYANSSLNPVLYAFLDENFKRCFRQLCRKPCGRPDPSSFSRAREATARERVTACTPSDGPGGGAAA

Oc1ccc2c3c1OC1C(O)C=CC4C(C2)N(/C(=N/c2ccccc2)Nc2ccccc2)CCC341 (stereo not drawn) [JFY-058, (5α,6α)-7,8-didehydro-4,5-epoxy-17-(N,N′-bisphenylcarboxamidino)morphinan, 3,6-diol]
Straub tail behaviour (ICR mice [1]; IP, 40 minute observation period after administration, Example 18): None of the test animals exhibited Straub tail behaviour
% Inhibition (ICR mice [2]; 1 mg/kg, Table 5): 17%
Number of Writhings Average (ICR mice [2]; 1 mg/kg, Table 5): 15
Number of Writhings Individual (ICR mice [2]; 1 mg/kg, Table 5): 17 and 19 and 10
% Inhibition (ICR mice [2]; 2 mg/kg, Table 5): 33%
Number of Writhings Average (ICR mice [2]; 2 mg/kg, Table 5): 12
Number of Writhings Individual (ICR mice [2]; 2 mg/kg, Table 5): 15 and 13 and 8
% Inhibition (ICR mice [2]; 4 mg/kg, Table 5): 39%
Number of Writhings Average (ICR mice [2]; 4 mg/kg, Table 5): 11
Number of Writhings Individual (ICR mice [2]; 4 mg/kg, Table 5): 15 and 6 and 11
% Inhibition (ICR mice [2]; 8 mg/kg, Table 5): 39%
Number of Writhings Average (ICR mice [2]; 8 mg/kg, Table 5): 11
Number of Writhings Individual (ICR mice [2]; 8 mg/kg, Table 5): 3 and 15 and 14
% Inhibition (ICR mice [2]; 16 mg/kg, Table 5): 78%
Number of Writhings Average (ICR mice [2]; 16 mg/kg, Table 5): 4
Number of Writhings Individual (ICR mice [2]; 16 mg/kg, Table 5): 2 and 1 and 8
% Inhibition (ICR mice [2]; 32 mg/kg, Table 5): 100%
Number of Writhings Average (ICR mice [2]; 32 mg/kg, Table 5): 0
Number of Writhings Individual (ICR mice [2]; 32 mg/kg, Table 5): 0 (2×) and 1
% Inhibition (ICR mice [2]; 64 mg/kg, Table 5): 100%
Number of Writhings Average (ICR mice [2]; 64 mg/kg, Table 5): 0
Number of Writhings Individual (ICR mice [2]; 64 mg/kg, Table 5): 0
% Inhibition (ICR mice [2]; 128 mg/kg, Table 5): 100%
Number of Writhings Average (ICR mice [2]; 128 mg/kg, Table 5): 0
Number of Writhings Individual (ICR mice [2]; 128 mg/kg, Table 5): 0
analgesic activity (≧50% reduction in writhes) (ICR mice [2]; doses of 128, 64, 32 and 16 mg/kg): significant activity

Cc1ccc(N=C(NCCCN2CC[C@]34c5c6ccc(O)c5O[C@H]3[C@@H](O)C=CC4[C@H]2C6)Nc2ccc(C)cc2)cc1 (stereo partly drawn) [KRS-6-26, (5α,6α)-7,8-didehydro-4,5-epoxy-17-(N,N′-bis-p-tolylcarboxamidino-3-aminopropyl)morphinan-3,6-diol]
inhibition at 10 µM (human μ-opiate receptor): 99%
inhibition at 10 µM (human κ-opiate receptor): 94%
test animals exhibiting slight Straub tail behaviour (ICR mice [1]; IP, 16 mg/kg, Example 18): one
test animals exhibiting slight Straub tail behaviour and piloerection (ICR mice [1]; IP, 128, 64 and 32 mg/kg, Example 18): 2 of 3
inhibition at 10 µM (human δ-opiate receptor): 95%
% Inhibition (ICR mice [2]; 1 mg/kg, Table 4): 50%
Number of Writhings Average (ICR mice [2]; 1 mg/kg, Table 4): 6
Number of Writhings Individual (ICR mice [2]; 1 mg/kg, Table 4): 0 and 13 and 4
% Inhibition (ICR mice [2]; 2 mg/kg, Table 4): 50%
Number of Writhings Average (ICR mice [2]; 2 mg/kg, Table 4): 6
Number of Writhings Individual (ICR mice [2]; 2 mg/kg, Table 4): 13 and 2 and 4
% Inhibition (ICR mice [2]; 4 mg/kg, Table 4): 75%
Number of Writhings Average (ICR mice [2]; 4 mg/kg, Table 4): 3
Number of Writhings Individual (ICR mice [2]; 4 mg/kg, Table 4): 0 and 7 and 2
% Inhibition (ICR mice [2]; 8 mg/kg, Table 4): 92%
Number of Writhings Average (ICR mice [2]; 8 mg/kg, Table 4): 1
Number of Writhings Individual (ICR mice [2]; 8 mg/kg, Table 4): 1 and 0 and 2
% Inhibition (ICR mice [2]; 16 mg/kg, Table 4): 100%
Number of Writhings Average (ICR mice [2]; 16 mg/kg, Table 4): 0
Number of Writhings Individual (ICR mice [2]; 16 mg/kg, Table 4): 0
% Inhibition (ICR mice [2]; 32 mg/kg, Table 4): 100%
Number of Writhings Average (ICR mice [2]; 32 mg/kg, Table 4): 0
Number of Writhings Individual (ICR mice [2]; 32 mg/kg, Table 4): 0 (2×) and 1
% Inhibition (ICR mice [2]; 64 mg/kg, Table 4): 100%
Number of Writhings Average (ICR mice [2]; 64 mg/kg, Table 4): 0
Number of Writhings Individual (ICR mice [2]; 64 mg/kg, Table 4): 0
% Inhibition (ICR mice [2]; 128 mg/kg, Table 4): 100%
Number of Writhings Average (ICR mice [2]; 128 mg/kg, Table 4): 0
Number of Writhings Individual (ICR mice [2]; 128 mg/kg, Table 4): 0
inhibition in writhing (ICR mice [2]; doses higher than 8 mg/kg): 100%
deaths (ICR mice [2]; up to 128 mg/kg): no deaths

CN1CC[C@]23c4c5ccc(O)c4O[C@H]2[C@@H](O)C=C[C@H]3[C@H]1C5 [Morphine.HCl, reference compound]
% Inhibition (ICR mice [3]): 100%
No. of Writhings Individual (ICR mice [3]; individual mice): 0
% Inhibition (prolongation of tail-flick response time) (ICR mice [4]; 30 minutes): (100) %
Response Time (Seconds) 30 Mins., Average (ICR mice [4]; 30 minutes after administration): 13.6 s
Response Time (Seconds) 30 Mins. (ICR mice [4]; individual mice, 30 minutes after administration, cut-off 15 seconds): >15.0 Seconds (3×) and 9.4 Seconds
Response Time (Seconds) 0 Time (ICR mice [4]; individual mice, pre-treatment (0 minutes)): 6.3 Seconds (2×) and 6.2 Seconds and 6.5 Seconds
Response Time (Seconds) 0 Time, Average (ICR mice [4]; pre-treatment (0 minutes)): 6.3 s
test animals exhibiting the Straub tail phenomenon (ICR mice [1]; 3 mg/kg, Example 16): 1 of 3
test animals with slight Straub tail phenomenon (ICR mice [1]; 3 mg/kg, Example 18): 2 of 3
% Inhibition (ICR mice [2]; 3 mg/kg, Table 4): 100%
Number of Writhings Average (ICR mice [2]; 3 mg/kg, Table 4): 0
% Inhibition (ICR mice [2]; 3 mg/kg, Table 5): 100%
Number of Writhings Average (ICR mice [2]; 3 mg/kg, Table 5): 0
Number of Writhings Individual (ICR mice [2]; 3 mg/kg, Table 4): 1 and 0 (2×)
Number of Writhings Individual (ICR mice [2]; 3 mg/kg, Table 5): 0

(5α,6α)-7,8-didehydro-4,5-epoxy-17-(N,N′-bis-p-tolylcarboxamidino-3-aminopropyl)morphinan-3,6-diol [KRS-6-26]
analgesic activity (≧50% reduction in writhes) (ICR mice [2]; doses of 128, 64, 32, 16, 8, 4, 2 and 1 mg/kg): significant activity
